{"source": "patent US8637702B2", "about": "“Derivatives of N-hydroxybenzamide for treating HIV infections” (Italfarmaco S.p.A., priority 2009, dated 2014)", "key": {"HDAC6": {"target": "T1, HDAC6 (Homo sapiens, UniProt Q9UBN7)", "T1 sequence (Q9UBN7 1-1215)": "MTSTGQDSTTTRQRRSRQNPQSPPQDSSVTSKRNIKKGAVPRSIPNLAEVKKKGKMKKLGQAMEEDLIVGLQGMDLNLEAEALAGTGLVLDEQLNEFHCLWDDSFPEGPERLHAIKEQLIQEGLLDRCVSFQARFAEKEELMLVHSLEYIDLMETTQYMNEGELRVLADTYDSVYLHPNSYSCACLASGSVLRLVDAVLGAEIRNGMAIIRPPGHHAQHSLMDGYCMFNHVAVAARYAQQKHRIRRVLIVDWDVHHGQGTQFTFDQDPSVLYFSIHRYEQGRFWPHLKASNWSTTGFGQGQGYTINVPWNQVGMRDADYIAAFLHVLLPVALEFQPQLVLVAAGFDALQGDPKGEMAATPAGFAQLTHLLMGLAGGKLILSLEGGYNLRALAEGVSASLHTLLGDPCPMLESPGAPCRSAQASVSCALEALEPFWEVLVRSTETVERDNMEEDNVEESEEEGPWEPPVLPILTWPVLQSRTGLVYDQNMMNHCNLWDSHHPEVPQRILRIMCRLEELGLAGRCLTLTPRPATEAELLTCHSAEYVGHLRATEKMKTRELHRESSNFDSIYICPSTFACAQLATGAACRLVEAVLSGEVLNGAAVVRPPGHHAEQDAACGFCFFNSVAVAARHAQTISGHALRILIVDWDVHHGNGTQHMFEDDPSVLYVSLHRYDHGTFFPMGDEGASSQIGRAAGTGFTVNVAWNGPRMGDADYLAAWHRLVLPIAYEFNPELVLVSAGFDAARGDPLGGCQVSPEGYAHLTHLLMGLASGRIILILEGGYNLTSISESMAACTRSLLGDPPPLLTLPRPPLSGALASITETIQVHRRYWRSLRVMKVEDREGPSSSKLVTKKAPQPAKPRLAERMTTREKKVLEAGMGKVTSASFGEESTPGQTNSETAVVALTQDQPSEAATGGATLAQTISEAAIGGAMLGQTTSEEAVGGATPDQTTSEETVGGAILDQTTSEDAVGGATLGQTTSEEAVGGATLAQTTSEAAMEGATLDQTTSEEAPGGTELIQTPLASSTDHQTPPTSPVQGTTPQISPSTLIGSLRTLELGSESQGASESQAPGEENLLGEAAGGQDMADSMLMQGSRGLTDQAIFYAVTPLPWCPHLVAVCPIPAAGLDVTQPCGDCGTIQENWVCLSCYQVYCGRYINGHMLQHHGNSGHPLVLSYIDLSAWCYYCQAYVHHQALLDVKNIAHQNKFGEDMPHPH", "assay": "Inhibition of histone deacetylase isoforms, HDAC6", "procedure": "(§1) Recombinant human enzymes were acquired from BPS Biosciences (CA, USA). Isoforms of Class I HDAC1, 2, 3; HDAC6, 10 of Class IIb and Class IV HDAC11 were tested using the Fluor-de-Lys fluorogenic synthetic substrate (Enzo Life Sciences, Plymouth Meeting, Pa.). […] The recombinant human HDAC8 assay was performed using HDAC8 Fluorimetric Drug Discovery Kit (Enzo) according to the manufacturer instructions. Each inhibitor was dissolved in DMSO and then further diluted in an assay buffer. […] The assays were performed by pre-incubating each enzyme with the inhibitors for 15 minutes at 37° C. The reaction was started by adding the substrate at 37° C. and allowed to proceed for 60 minutes. The fluorescent signal was generated by adding 50 μL of a twice concentrated developer solution 2 (Enzo) containing trichostatin A 4 μM."}, "HDAC7": {"target": "T2, HDAC7 (Homo sapiens, UniProt Q8WUI4)", "T2 sequence (Q8WUI4 1-952)": "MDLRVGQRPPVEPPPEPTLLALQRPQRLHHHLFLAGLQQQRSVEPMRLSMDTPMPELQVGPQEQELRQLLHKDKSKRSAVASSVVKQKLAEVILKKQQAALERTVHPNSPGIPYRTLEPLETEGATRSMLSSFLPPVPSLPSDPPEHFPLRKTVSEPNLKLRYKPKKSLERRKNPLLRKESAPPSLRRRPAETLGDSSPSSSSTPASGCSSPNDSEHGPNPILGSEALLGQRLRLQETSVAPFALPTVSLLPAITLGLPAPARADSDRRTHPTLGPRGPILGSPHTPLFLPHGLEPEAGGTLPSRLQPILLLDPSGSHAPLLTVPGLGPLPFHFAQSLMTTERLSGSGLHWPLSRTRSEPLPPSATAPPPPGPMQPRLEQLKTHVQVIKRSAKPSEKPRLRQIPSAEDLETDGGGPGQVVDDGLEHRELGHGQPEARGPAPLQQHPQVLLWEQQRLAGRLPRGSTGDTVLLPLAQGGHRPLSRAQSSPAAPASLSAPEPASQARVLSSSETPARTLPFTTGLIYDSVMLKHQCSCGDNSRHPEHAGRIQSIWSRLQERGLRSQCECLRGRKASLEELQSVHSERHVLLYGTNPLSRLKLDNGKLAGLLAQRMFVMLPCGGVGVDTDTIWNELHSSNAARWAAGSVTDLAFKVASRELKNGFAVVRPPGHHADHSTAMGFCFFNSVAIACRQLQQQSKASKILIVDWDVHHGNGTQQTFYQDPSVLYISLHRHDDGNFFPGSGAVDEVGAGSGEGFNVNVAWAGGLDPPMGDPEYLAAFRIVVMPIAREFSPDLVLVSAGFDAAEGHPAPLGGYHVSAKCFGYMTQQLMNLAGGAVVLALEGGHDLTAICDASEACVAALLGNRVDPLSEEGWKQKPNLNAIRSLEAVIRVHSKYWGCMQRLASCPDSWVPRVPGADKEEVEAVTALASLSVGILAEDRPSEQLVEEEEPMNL", "assay": "Inhibition of histone deacetylase isoforms, HDAC7", "procedure": "as §1"}, "HDAC8": {"target": "T3, HDAC8 (Homo sapiens, UniProt Q9BY41)", "T3 sequence (Q9BY41 1-377)": "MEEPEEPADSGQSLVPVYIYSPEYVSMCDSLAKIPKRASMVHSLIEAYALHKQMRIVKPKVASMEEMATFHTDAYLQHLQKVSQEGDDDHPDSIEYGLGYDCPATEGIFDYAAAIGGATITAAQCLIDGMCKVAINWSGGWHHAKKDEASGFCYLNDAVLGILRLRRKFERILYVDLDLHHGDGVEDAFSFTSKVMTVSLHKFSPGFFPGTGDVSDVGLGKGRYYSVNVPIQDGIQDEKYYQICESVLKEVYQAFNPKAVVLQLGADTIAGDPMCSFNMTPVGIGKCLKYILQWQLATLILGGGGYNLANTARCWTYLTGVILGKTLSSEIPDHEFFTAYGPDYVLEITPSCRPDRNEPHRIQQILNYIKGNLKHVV", "assay": "Inhibition of histone deacetylase isoforms, HDAC8", "procedure": "as §1"}, "HDAC9": {"target": "HDAC9 (Homo sapiens, UniProt Q9UKV0)", "sequence (Q9UKV0 whole entry, canonical isoform)": "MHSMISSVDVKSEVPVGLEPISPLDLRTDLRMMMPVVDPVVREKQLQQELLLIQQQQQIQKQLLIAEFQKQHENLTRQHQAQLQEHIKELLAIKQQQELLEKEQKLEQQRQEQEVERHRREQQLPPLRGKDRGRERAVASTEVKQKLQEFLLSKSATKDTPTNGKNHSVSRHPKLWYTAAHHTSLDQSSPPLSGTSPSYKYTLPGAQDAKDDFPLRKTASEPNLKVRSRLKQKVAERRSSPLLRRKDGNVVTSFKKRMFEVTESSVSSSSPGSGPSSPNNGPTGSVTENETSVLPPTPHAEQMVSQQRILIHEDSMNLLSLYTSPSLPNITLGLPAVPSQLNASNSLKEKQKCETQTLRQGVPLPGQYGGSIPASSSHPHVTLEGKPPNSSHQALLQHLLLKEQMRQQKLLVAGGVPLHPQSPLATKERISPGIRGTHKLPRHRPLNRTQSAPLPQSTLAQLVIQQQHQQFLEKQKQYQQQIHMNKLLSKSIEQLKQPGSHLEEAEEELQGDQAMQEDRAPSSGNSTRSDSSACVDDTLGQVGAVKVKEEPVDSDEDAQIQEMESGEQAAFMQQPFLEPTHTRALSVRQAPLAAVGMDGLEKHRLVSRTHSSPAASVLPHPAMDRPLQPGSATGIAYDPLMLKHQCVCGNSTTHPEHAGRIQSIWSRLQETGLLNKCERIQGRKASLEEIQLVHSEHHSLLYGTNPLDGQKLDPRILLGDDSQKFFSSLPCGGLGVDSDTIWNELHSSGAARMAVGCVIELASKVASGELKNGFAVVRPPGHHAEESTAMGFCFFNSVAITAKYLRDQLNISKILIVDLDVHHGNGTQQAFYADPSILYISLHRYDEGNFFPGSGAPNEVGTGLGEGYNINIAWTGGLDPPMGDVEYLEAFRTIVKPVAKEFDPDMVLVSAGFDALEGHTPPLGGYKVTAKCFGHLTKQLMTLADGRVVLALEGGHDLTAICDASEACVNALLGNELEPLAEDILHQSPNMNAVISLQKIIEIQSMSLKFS", "assay": "Inhibition of histone deacetylase isoforms, HDAC9", "procedure": "(§2) Recombinant human enzymes were acquired from BPS Biosciences (CA, USA). Isoforms of Class I HDAC1, 2, 3; HDAC6, 10 of Class IIb and Class IV HDAC11 were tested using the Fluor-de-Lys fluorogenic synthetic substrate (Enzo Life Sciences, Plymouth Meeting, Pa.). […] Each inhibitor was dissolved in DMSO and then further diluted in an assay buffer. […] The assays were performed by pre-incubating each enzyme with the inhibitors for 15 minutes at 37° C. The reaction was started by adding the substrate at 37° C. and allowed to proceed for 60 minutes. The fluorescent signal was generated by adding 50 μL of a twice concentrated developer solution 2 (Enzo) containing trichostatin A 4 μM."}, "HDAC3": {"target": "HDAC3 (Homo sapiens, UniProt O15379)", "sequence (O15379 whole entry, canonical isoform)": "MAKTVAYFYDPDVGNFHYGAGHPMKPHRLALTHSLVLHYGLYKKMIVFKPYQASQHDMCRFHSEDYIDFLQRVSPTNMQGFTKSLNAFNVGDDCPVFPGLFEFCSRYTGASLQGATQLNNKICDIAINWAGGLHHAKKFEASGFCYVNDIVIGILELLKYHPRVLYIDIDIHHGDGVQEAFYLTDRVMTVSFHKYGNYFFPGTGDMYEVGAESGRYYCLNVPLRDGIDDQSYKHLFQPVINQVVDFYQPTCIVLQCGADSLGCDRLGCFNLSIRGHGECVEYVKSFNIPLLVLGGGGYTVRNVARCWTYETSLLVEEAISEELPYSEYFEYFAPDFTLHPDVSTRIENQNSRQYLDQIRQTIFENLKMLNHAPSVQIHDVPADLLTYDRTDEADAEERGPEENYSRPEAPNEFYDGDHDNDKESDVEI", "sequence (Q9Y618 395-489 partner limits assumed)": "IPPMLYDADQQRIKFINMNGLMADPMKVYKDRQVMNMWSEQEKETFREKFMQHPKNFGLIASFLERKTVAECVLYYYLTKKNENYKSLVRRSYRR", "assay": "Inhibition of histone deacetylase isoforms, HDAC3", "procedure": "as §1"}, "HDAC1": {"target": "HDAC1 (Homo sapiens, UniProt Q13547)", "sequence (Q13547 whole entry, canonical isoform)": "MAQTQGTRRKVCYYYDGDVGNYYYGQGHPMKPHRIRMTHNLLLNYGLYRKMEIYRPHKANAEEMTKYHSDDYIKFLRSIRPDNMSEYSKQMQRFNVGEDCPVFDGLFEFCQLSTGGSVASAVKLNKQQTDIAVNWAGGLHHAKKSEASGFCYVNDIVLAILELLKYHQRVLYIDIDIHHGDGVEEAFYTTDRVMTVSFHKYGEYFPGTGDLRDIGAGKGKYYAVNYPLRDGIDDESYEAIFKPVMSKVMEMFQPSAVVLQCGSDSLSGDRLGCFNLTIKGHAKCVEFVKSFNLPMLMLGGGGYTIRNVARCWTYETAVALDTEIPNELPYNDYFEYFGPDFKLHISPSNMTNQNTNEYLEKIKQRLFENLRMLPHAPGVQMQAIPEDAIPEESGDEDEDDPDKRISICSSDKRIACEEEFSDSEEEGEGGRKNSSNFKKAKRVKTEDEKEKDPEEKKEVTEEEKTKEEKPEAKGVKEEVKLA", "assay": "Inhibition of histone deacetylase isoforms, HDAC1", "procedure": "as §2"}, "HDAC4": {"target": "HDAC4 (Homo sapiens, UniProt P56524)", "sequence (P56524 whole entry, canonical isoform)": "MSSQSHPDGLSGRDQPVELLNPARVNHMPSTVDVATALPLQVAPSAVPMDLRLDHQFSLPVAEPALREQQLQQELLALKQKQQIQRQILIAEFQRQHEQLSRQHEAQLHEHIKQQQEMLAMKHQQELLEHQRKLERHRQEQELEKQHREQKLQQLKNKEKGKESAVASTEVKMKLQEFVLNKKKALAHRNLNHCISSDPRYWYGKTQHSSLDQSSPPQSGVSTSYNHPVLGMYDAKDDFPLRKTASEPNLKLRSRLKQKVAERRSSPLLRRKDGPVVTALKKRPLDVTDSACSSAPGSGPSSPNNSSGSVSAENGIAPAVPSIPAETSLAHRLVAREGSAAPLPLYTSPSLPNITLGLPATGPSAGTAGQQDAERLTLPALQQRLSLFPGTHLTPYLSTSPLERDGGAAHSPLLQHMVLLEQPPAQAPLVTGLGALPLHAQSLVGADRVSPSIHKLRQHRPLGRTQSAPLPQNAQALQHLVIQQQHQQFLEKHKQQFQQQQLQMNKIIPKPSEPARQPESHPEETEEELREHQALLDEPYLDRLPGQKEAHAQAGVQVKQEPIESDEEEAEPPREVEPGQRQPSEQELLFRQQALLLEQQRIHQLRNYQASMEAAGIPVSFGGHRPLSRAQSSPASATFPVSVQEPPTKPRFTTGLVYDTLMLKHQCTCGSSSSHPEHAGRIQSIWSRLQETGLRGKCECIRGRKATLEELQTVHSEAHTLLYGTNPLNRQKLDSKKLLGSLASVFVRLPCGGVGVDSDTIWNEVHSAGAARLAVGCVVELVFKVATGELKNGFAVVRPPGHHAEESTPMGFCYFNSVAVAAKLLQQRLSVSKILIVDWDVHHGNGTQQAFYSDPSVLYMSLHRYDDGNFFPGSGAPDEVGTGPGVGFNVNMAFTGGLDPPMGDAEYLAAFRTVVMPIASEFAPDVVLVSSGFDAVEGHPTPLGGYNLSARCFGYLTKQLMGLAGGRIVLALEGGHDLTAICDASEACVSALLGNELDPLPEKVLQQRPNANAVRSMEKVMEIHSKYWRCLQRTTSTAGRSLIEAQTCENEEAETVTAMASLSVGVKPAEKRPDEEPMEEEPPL", "assay": "Inhibition of histone deacetylase isoforms, HDAC4", "procedure": "as §2"}}, "data": [{"smiles": "O=C(NO)c1ccc(NC(=O)[C@H](Cc2ccc3ccccc3c2)NC(=O)c2ccccc2)cc1", "note": "[Compound g, 4-(2(S)-benzoylamino-3-naphtalen-2-yl-propionylamino)-N-hydroxy-benzamide]", "values": [{"measurement": "IC50", "setting": "HDAC6", "result": 3620, "unit": "nM"}, {"measurement": "IC50", "setting": "HDAC7", "result": 2020, "unit": "nM"}, {"measurement": "IC50", "setting": "HDAC8", "result": 492, "unit": "nM"}, {"measurement": "IC50", "setting": "HDAC9", "result": 4150, "unit": "nM"}, {"measurement": "IC50", "setting": "HDAC3", "result": 246, "unit": "nM"}, {"measurement": "IC50", "setting": "HDAC1", "result": 54.7, "unit": "nM"}, {"measurement": "IC50", "setting": "HDAC4", "result": 3110, "unit": "nM"}]}, {"smiles": "O=C(NO)c1ccc(NC(=O)[C@H](Cc2ccc3ccccc3c2)NC(=O)c2ccc3c(c2)OCO3)cc1", "note": "[Compound t, benzo[1,3]dioxole-5-carboxylic acid [1(S)-(4-hydroxycarbamoyl-phenylcarbamoyl)-2-naphtalen-2-yl-ethy]-amide]", "values": [{"measurement": "IC50", "setting": "HDAC6", "result": 618, "unit": "nM"}, {"measurement": "IC50", "setting": "HDAC7", "result": 8620, "unit": "nM"}, {"measurement": "IC50", "setting": "HDAC8", "result": 162, "unit": "nM"}, {"measurement": "IC50", "setting": "HDAC9", "result": "> 10000", "unit": "nM"}, {"measurement": "IC50", "setting": "HDAC3", "result": 107, "unit": "nM"}, {"measurement": "IC50", "setting": "HDAC1", "result": 71.5, "unit": "nM"}, {"measurement": "IC50", "setting": "HDAC4", "result": "> 10000", "unit": "nM"}]}]}
